Measured values published in patent US20260242324A1, “FATTY ACID MIMETICS AS MODULATORS OF GPR40 AND/OR GPR120” (Trustees of Dartmouth College, priority 2023, published 2026).
Where two headings read alike, the source gives them in different places.

Tests used:
GPR40 = biological target: T1, GPR40 (Homo sapiens, UniProt O14842); experiment: β-arrestin assay (PathHunter) for GPR40 agonism; type: cell-based; settings: for activity at GPR40 in heat map of % maximal efficacy: single dose 15 μM, FIG. 9A, compared to oleic acid at 15 μM; for GPR40 agonism / EC50 / selectivity for GPR40 over GPR120: dose-response; for GPR40 agonism / selectivity for GPR40 over GPR120: FIG. 9B; for potency at GPR40 relative to oleic acid: multiple of oleic acid potency; for EC50: PathHunter β-arrestin
T1 construct: beta-galactosidase enzyme fragment for EFC (ProLink-type tag); expressed in transfected cells
Method: (§1) In this example, compounds from Example 1 were assessed as functional ligands (agonists) to two oleic acid receptors (GPR40 and GPR120). […]

GPR120 [1] = biological target: T2, GPR120 (Homo sapiens, UniProt Q5NUL3); experiment: β-arrestin assay (PathHunter) for GPR120 agonism; type: cell-based; design: beta-galactosidase enzyme fragment for EFC (ProLink-type tag); expressed in transfected cells; settings: for EC50: PathHunter β-arrestin, dose-response; for agonist efficacy at GPR120: relative to oleic acid and GW9508; for activity at GPR120 in heat map of % maximal efficacy: single dose 15 μM, FIG. 9A, compared to oleic acid at 15 μM
T2 sequence (Q5NUL3 1-361): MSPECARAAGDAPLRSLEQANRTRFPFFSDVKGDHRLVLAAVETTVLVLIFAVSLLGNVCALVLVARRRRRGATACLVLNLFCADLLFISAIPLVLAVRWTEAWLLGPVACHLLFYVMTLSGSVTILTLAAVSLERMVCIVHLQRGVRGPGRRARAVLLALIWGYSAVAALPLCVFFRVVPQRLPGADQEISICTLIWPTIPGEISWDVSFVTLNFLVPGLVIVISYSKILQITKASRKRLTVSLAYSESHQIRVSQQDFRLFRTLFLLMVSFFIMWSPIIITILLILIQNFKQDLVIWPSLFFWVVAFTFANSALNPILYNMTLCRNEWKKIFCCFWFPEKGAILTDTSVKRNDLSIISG
Method: as §1

GPR120 [2] = biological target: T2, GPR120; settings: read-out: EC50 as agonist of GPR120; reported; cited from earlier work
MIN6 cells = settings: reported, concentrations as low as; cited from earlier work
CHO-mGPR40 cells = biological target: T3, CHO-mGPR40 cells (Mus musculus, UniProt Q76JU9); settings: reported; read-out: EC50, stimulatory activity on CHO-mGPR40 cells; cited from earlier work
T3 construct: host or cells: CHO cells transfected with mGPR40
T3 sequence (Q76JU9 whole entry): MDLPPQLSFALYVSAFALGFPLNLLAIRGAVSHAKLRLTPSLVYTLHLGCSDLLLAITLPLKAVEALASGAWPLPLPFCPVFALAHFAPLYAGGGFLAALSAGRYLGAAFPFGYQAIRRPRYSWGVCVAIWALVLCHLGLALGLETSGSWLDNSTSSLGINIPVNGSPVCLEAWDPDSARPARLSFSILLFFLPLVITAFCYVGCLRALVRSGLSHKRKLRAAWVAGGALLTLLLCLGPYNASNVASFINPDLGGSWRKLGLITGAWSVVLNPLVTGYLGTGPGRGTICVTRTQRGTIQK

T1 sequence (O14842 whole entry, the tested form may be a part): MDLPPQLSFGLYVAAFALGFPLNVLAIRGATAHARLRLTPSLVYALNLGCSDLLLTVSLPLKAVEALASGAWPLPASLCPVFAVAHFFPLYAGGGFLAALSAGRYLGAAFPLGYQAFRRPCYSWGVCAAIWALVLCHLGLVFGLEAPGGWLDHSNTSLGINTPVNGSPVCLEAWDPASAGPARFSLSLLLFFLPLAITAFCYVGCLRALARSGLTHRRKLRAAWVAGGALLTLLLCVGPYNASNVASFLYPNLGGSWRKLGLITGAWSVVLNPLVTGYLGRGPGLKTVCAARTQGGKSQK

CCCCCCCCCC/C=C(/C)C/C(C)=C/[C@H](C)CC(=O)O [Compound 1-A]
activity at GPR40 in heat map of % maximal efficacy (GPR40): enriched for activity at GPR40

CCCCCCC[C@@H](C)/C=C(/C)C/C(C)=C/[C@@H](C)CCCC(=O)O [Compound 2-D]
EC50 (GPR120 [1]): 1 to 7 µM | agonist efficacy at GPR120 (GPR120 [1]): agonist efficacy at a fraction of what is observed with oleic acid and GW9508 | activity at GPR120 in heat map of % maximal efficacy (GPR120 [1]): enriched for activity at GPR120 | GPR40 agonism (GPR40): effective agonists of GPR40 | potency at GPR40 relative to oleic acid (GPR40): approximately 6 fold

CCC[C@@H](C)/C=C(/C)C/C(C)=C/[C@H](C)CCCCCCCC(=O)O [Compound 4-C]
activity against GPR120 (GPR120 [1]): inactive against GPR120

CCCCCCC[C@@H](C)/C=C(/C)C/C(C)=C/[C@H](C)CCCC(=O)O [Compound 2-C]
activity against GPR120 (GPR120 [1]): agonist activity against GPR120 | EC50 (GPR120 [1]): 1 to 7 µM | agonist efficacy at GPR120 (GPR120 [1]): agonist efficacy at a fraction of what is observed with oleic acid and GW9508 | activity at GPR120 in heat map of % maximal efficacy (GPR120 [1]): enriched for activity at GPR120 | GPR40 agonism (GPR40): effective agonists of GPR40 | potency at GPR40 relative to oleic acid (GPR40): approximately 6 fold

CCCCCCC[C@H](C)/C=C(/C)C/C(C)=C/[C@H](C)CCCC(=O)O [Compound 2-E]
selectivity for GPR120 (GPR120 [1]; GPR120 over GPR40): 5 fold | EC50 (GPR120 [1]): 1 to 7 µM | agonist efficacy at GPR120 (GPR120 [1]): agonist efficacy at a fraction of what is observed with oleic acid and GW9508 | activity at GPR120 in heat map of % maximal efficacy (GPR120 [1]): enriched for activity at GPR120 | enhanced potency (GPR120 [1]; versus oleic acid or GW9508): 7-15 fold | GPR40 agonism (GPR40): effective agonists of GPR40 | potency at GPR40 relative to oleic acid (GPR40): approximately 6 fold

CCCCCCCC/C=C\CCCCCCCC(=O)O [oleic acid, reference compound]
activity against GPR120 (GPR120 [1]): agonist activity against GPR120 | EC50 (GPR120 [1]): 15 µM | EC50 (GPR120 [2]): 12 µM | EC50 (GPR40): 37 µM | right shift of reporter assay results (GPR40; versus reported values, receptor not specified): ~ 20 fold | concentration inducing insulin secretion in MIN6 cells (MIN6 cells): ≥ 1 µM | EC50 (CHO-mGPR40 cells): 2 µM

O=C(O)CCc1ccc(NCc2cccc(Oc3ccccc3)c2)cc1 [GW9508, reference compound]
EC50 (GPR40): 1 µM

CCCCCCCCC[C@H](C)/C=C(/C)C/C(C)=C/[C@H](C)CC(=O)O [Compound 1-E]
GPR40 agonism (GPR40): exceptionally selective and potent agonists of GPR40 | selectivity for GPR40 over GPR120 (GPR40): substantial selectivity over GPR120 | potency at GPR40 relative to oleic acid (GPR40): twelve times greater than oleic acid | activity at GPR40 in heat map of % maximal efficacy (GPR40): enriched for activity at GPR40

CCCCCCCCC[C@@H](C)/C=C(/C)C/C(C)=C/[C@H](C)CC(=O)O [Compound 1-C]
GPR40 agonism (GPR40): exceptionally selective and potent agonists of GPR40 | selectivity for GPR40 over GPR120 (GPR40): substantial selectivity over GPR120 | activity at GPR40 in heat map of % maximal efficacy (GPR40): enriched for activity at GPR40

CCCCCCCCC[C@H](C)/C=C(/C)C/C(C)=C/[C@@H](C)CC(=O)O [Compound 1-F]
GPR40 agonism (GPR40): exceptionally selective and potent agonists of GPR40 | selectivity for GPR40 over GPR120 (GPR40): substantial selectivity over GPR120
